Data published in the supplement of paper PMC10307832.

Assays:
Assay in all cases: relative viability (nuclei count vs DMSO), 5 days (fraction); higher = more cells survive
[1] = compound: Cn1cncc1[C@@](N)(c1ccc(Cl)cc1)c1ccc2c(c1)c(-c1cccc(Cl)c1)cc(=O)n2C [Tipifarnib] + C[C@]1(O)C[C@@H](c2nc(-c3ccc4ccc(-c5ccccc5)nc4c3)c3c(N)nccn32)C1 [Linsitinib] (partner 1 µM)
Outline: (§1)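 After 5 days of treatment, lung cancer cells in 1536-well plates were fixed and stained in a single step (final 0.05% Triton X-100, 1% formaldehyde, 1 ug/ml Hoechst) and their nuclei counted on 4× images. Treatment had been applied by pin tool the day after seeding as one drug alone or as a fixed anchor-drug dose with five library-drug doses (not always all listed) in √10 steps. Relative viability is the nuclei count of treated wells divided by that of vehicle wells, and values are medians of duplicate plates.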

[2] = compound: Cn1cncc1[C@@](N)(c1ccc(Cl)cc1)c1ccc2c(c1)c(-c1cccc(Cl)c1)cc(=O)n2C [Tipifarnib] + CC1(C)CCC(c2ccc(Cl)cc2)=C(CN2CCN(c3ccc(C(=O)NS(=O)(=O)c4ccc(N[C@H](CCN5CCOCC5)CSc5ccccc5)c(S(=O)(=O)C(F)(F)F)c4)cc3)CC2)C1 [Navitoclax] (partner 0.5 µM)
Outline: as §1

[3] = compound: Cn1cncc1[C@@](N)(c1ccc(Cl)cc1)c1ccc2c(c1)c(-c1cccc(Cl)c1)cc(=O)n2C [Tipifarnib] + O=C(CCCCCCC(=O)Nc1ccccc1)NO [Vorinostat] (partner 1 µM)
Outline: as §1

[4] = compound: Cn1cncc1[C@@](N)(c1ccc(Cl)cc1)c1ccc2c(c1)c(-c1cccc(Cl)c1)cc(=O)n2C [Tipifarnib] + Nc1nc2[nH]cc(CCc3ccc(C(=O)N[C@@H](CCC(=O)O)C(=O)O)cc3)c2c(=O)[nH]1 [Pemetrexed] (partner 0.2 µM)
Outline: as §1

Cell Line	relative viability ([1]; first compound 0.01 µM)	relative viability ([1]; first compound 0.03162 µM)	relative viability ([1]; first compound 0.1 µM)	relative viability ([1]; first compound 0.3162 µM)	relative viability ([1]; first compound 1 µM)	relative viability ([2]; first compound 0.01 µM)	relative viability ([2]; first compound 0.03162 µM)	relative viability ([2]; first compound 0.1 µM)	relative viability ([2]; first compound 0.3162 µM)	relative viability ([2]; first compound 1 µM)	relative viability ([3]; first compound 0.01 µM)	relative viability ([3]; first compound 0.03162 µM)	relative viability ([3]; first compound 0.1 µM)	relative viability ([3]; first compound 0.3162 µM)	relative viability ([3]; first compound 1 µM)	relative viability ([4]; first compound 0.01 µM)	relative viability ([4]; first compound 0.03162 µM)	relative viability ([4]; first compound 0.1 µM)	relative viability ([4]; first compound 0.3162 µM)	relative viability ([4]; first compound 1 µM)
201T	1.04	1.04	0.989	0.949	1.07	1.21	1.23	1.2	1.15	1.18	1.04	0.965	0.908	0.839	0.583	0.363	0.338	0.371	0.317	0.346
A-427	1.18	1.11	1.05	1.09	1.09	1	0.951	0.955	0.874	0.812	0.839	0.849	0.621	0.8	0.655	0.998	1.06	0.82	0.979	0.739
ABC-1	0.827	–	0.76	0.665	0.554	–	–	–	–	–	1.16	0.481	0.781	0.593	0.613	–	–	–	–	–
BEN	1.03	1.18	0.835	0.696	0.716	0.0636	0.0524	0.0587	0.0688	0.0536	0.597	0.488	0.538	0.464	0.422	0.802	0.81	0.776	0.737	0.598
CAL-12T	0.812	0.606	0.616	0.387	0.403	1.21	1.1	0.768	0.526	0.716	0.701	0.519	0.454	0.324	0.29	1.2	1.09	0.741	0.472	0.62
COR-L23	1.01	0.628	0.614	0.374	0.409	1.15	0.804	0.679	0.492	0.556	0.541	0.34	0.316	0.221	0.252	0.215	0.205	0.195	0.206	0.188
COR-L 105	0.88	0.855	0.674	0.554	0.668	0.874	0.578	0.739	0.576	0.559	0.982	0.75	0.605	0.504	0.478	1.16	1.11	0.814	0.784	0.793
Calu-6	0.941	0.679	0.645	0.515	0.444	0.538	0.35	0.196	0.194	0.2	–	–	–	–	–	–	–	–	–	–
ChaGo-K-1	–	–	–	–	–	1.07	1.11	1.09	0.933	0.626	0.772	0.706	0.752	0.691	0.297	0.262	0.274	0.265	0.27	0.272
EKVX	1.06	1.11	0.972	0.755	0.657	1.01	0.861	0.841	0.744	0.49	0.76	0.634	0.549	0.439	0.53	0.433	0.396	0.39	0.411	0.289
EMC-BAC-2	0.855	0.798	0.689	0.706	0.636	1.2	1.12	1.06	0.993	0.816	0.355	0.386	0.233	0.338	0.191	0.412	0.434	0.45	0.462	0.469
EPLC-272H	1.17	1.16	1.21	0.83	0.531	1.34	0.908	1.07	0.837	0.741	0.4	0.457	0.371	0.233	0.139	0.248	0.364	0.358	0.35	0.252
H3255	1.06	0.895	0.916	0.591	0.684	0.546	0.568	0.496	0.35	0.299	0.863	0.702	0.671	0.576	0.488	0.674	0.543	0.562	0.541	0.499
HARA	1.08	0.925	0.956	0.94	0.87	1.18	1.14	1.18	1.14	1.13	0.513	0.406	0.364	0.325	0.326	0.23	0.32	0.293	0.297	0.249
HCC-15	0.78	0.751	0.627	0.544	0.548	0.66	0.618	0.555	0.335	0.334	0.833	0.701	0.673	0.589	0.53	0.227	0.254	0.226	0.222	0.232
HCC-44	0.563	0.615	0.557	0.493	0.521	1.06	0.944	0.784	0.726	0.696	0.963	1.04	1.01	0.903	0.881	0.619	0.615	0.625	0.589	0.604
HCC-78	0.607	0.565	0.562	0.354	0.361	0.752	0.896	0.743	0.59	0.302	0.503	0.451	0.392	0.385	0.366	0.934	0.941	0.91	0.906	0.933
HCC-366	0.619	0.487	0.343	0.206	0.0767	1.14	0.762	0.751	0.483	0.188	0.249	0.145	0.102	0.067	0.0373	0.145	0.143	0.167	0.127	0.0507
HCC-827	0.828	0.918	0.805	0.639	0.6	0.941	0.95	0.793	0.666	0.66	0.926	0.674	0.69	0.485	0.294	0.273	0.32	0.286	0.25	0.275

Cell Line	relative viability ([1]; first compound 0.01 µM)	relative viability ([1]; first compound 0.03162 µM)	relative viability ([1]; first compound 0.1 µM)	relative viability ([1]; first compound 0.3162 µM)	relative viability ([1]; first compound 1 µM)	relative viability ([2]; first compound 0.01 µM)	relative viability ([2]; first compound 0.03162 µM)	relative viability ([2]; first compound 0.1 µM)	relative viability ([2]; first compound 0.3162 µM)	relative viability ([2]; first compound 1 µM)	relative viability ([3]; first compound 0.01 µM)	relative viability ([3]; first compound 0.03162 µM)	relative viability ([3]; first compound 0.1 µM)	relative viability ([3]; first compound 0.3162 µM)	relative viability ([3]; first compound 1 µM)	relative viability ([4]; first compound 0.01 µM)	relative viability ([4]; first compound 0.03162 µM)	relative viability ([4]; first compound 0.1 µM)	relative viability ([4]; first compound 0.3162 µM)	relative viability ([4]; first compound 1 µM)
HOP-62	0.916	0.64	0.38	0.304	0.301	0.937	0.55	0.377	0.233	0.33	0.624	0.186	0.335	0.243	0.203	0.233	0.297	0.276	0.208	0.222
IA-LM	0.329	0.285	0.332	0.288	0.189	0.388	0.378	0.296	0.251	0.164	–	0.539	0.277	0.238	0.249	–	–	–	–	–
LC-2-ad	0.756	0.705	0.487	0.448	0.369	0.413	0.296	0.258	0.216	0.201	0.634	0.505	0.42	0.336	0.305	0.273	0.271	0.283	0.265	0.275
LCLC-97TM1	0.204	0.169	0.174	0.192	0.169	0.557	0.359	0.241	0.446	0.19	0.657	0.166	0.518	0.394	0.121	0.169	0.208	0.192	0.16	0.144
LCLC-103H	1.04	1.02	1.02	0.802	0.913	–	–	–	–	–	0.676	0.707	0.68	0.533	0.611	0.517	0.45	0.49	0.49	0.507
LK-2	0.499	0.506	0.399	0.379	0.487	1.08	0.65	0.7	0.421	0.373	0.262	0.237	0.244	0.193	0.168	0.31	0.313	0.279	0.232	0.122
NCI-H358	0.782	0.691	0.664	0.512	0.48	–	–	–	–	–	0.638	0.431	0.365	0.309	0.247	0.183	0.185	0.193	0.182	0.169
NCI-H522	–	–	–	–	–	–	–	–	–	–	0.908	0.761	0.835	0.776	0.806	1.08	1.2	0.886	0.973	0.839
NCI-H650	0.825	0.706	0.662	0.526	0.348	–	–	–	–	–	0.366	0.325	0.346	0.249	0.189	1.02	0.917	0.846	0.626	0.36
NCI-H661	0.754	0.616	0.502	0.511	0.438	–	–	–	–	–	0.822	0.657	0.684	0.558	0.569	0.881	0.849	0.786	0.809	0.755
NCI-H727	0.285	0.334	0.321	0.3	0.259	0.622	0.53	0.421	0.41	0.277	1.15	1.22	1.18	1.32	0.91	–	–	–	–	–
NCI-H1563	1.13	1.13	1.13	1.03	1.14	–	–	–	–	–	–	–	–	–	–	0.731	0.799	0.777	0.655	0.665
NCI-H1648	–	–	–	–	–	–	–	–	–	–	0.356	0.394	0.419	0.384	0.372	0.6	0.746	0.842	0.636	0.305
NCI-H1650	–	–	–	–	–	0.666	0.352	0.402	0.291	0.289	0.415	0.399	0.306	0.253	0.212	0.427	0.379	0.329	0.271	0.278
NCI-H1703	0.84	0.323	0.145	0.274	0.373	1.1	0.563	0.27	0.359	0.364	–	–	–	–	–	–	–	–	–	–
NCI-H1792	0.436	0.453	0.257	0.207	0.233	0.717	0.583	0.466	0.364	0.108	–	–	–	–	–	0.681	0.332	0.416	0.157	0.118
NCI-H2170	–	–	–	–	–	0.733	0.566	0.448	0.433	0.338	0.831	0.774	0.697	0.637	0.335	0.257	0.291	0.269	0.243	0.242
NCI-H2342	–	–	–	–	–	–	–	–	–	–	0.847	0.746	0.597	0.73	0.516	0.906	0.776	0.71	0.64	0.509
SW 900	–	–	–	–	–	–	–	–	–	–	0.435	0.144	0.278	0.227	0.187	0.397	0.272	0.455	0.303	0.299
